Tests used:
Langerin ECD = target: T1, Langerin ECD (Homo sapiens, UniProt Q9UJ71, V278A); assay: 19F R2-filtered NMR reporter displacement assay (Ki determination); format: binding; details: Langerin ECD 50 μM, pH 7.8, 25° C.
T1 construct: residues 148 to 328; TEV site (C); StreptagII (C); made in house; host or cells: E. coli BL21* (DE3)
Procedure: Langerin extracellular domain. Expression and purification were conducted as previously published (Wamhoff, E. C. et al. (19)F Nmr-Guided Design of Glycomimetic Langerin Ligands. ACS Chem Biol, 11, 2407-13 (2016)). Briefly, the trimeric Langerin extracellular domain (ECD) was expressed insolubly in E. coli BL21* (DE3) (Invitrogen). Following enzymatic cell lysis, inclusion bodies were harvested and subsequently solubilized. The sample was centrifuged and the Langerin ECD was refolded overnight via rapid dilution. Next, the sample was dialyzed overnight, centrifuged and purified via mannan-agarose affinity chromatography (Sigma Aldrich). For ^19F R2-filtered NMR and lipid-enzyme-linked lectin assay (Lipid-ELLA) experiments, the buffer was exchanged to 25 mM Tris with 150 mM NaCl and 5 mM CaCl2 at pH 7.8 using 7 kDa size-exclusion desalting columns (Thermo Scientific). For STD NMR experiments, Langerin ECD samples were dialyzed five times for at least 8 h against H2O. Subsequently, the H2O was removed via lyophilization and the residue was stored at −80° C. Prior to STD NMR experiments, the Langerin ECD was dissolved in 25 mM Tris-d11 (Eurisotope) with 100% D2O, 150 mM NaCl and 5 mM CaCl2 at pH 7. The concentration of Langerin ECD was determined via UV spectroscopy (A280, 0.1%=2.45). Purity and monodispersity of Langerin ECD samples were analyzed via SDS PAGE and DLS.
General remarks. ^19F R2-filtered NMR experiments were conducted on a PremiumCompact 600 MHz spectrometer (Agilent). Spectra were processed in MestReNova and data analysis was performed with OriginPro (Mestrelab Research. Mestrenova. 11.0.2. (2016); OriginLab. Originpro. 9.1. (2015)). Experiments with the Langerin ECD were performed at a receptor concentration of 50 μM in 25 mM Tris with 10% D2O, 150 mM NaCl and 5 mM CaCl2 at pH 7.8 and 25° C. Experiments with the DC-SIGN CRD were performed at a receptor concentration of 50 μM in 25 mM HEPES with 10% D2O, 150 mM NaCl and 5 mM CaCl2 at pH 7.0 and 25° C. TFA served as an internal reference at a concentration of 50 μM. Apparent relaxation rates R2,obs for the reporter ligand were determined using the CPMG pulse sequence as previously published (Wamhoff, E. C. et al. (19)F Nmr-Guided Design of Glycomimetic Langerin Ligands. ACS Chem Biol, 11, 2407-13 (2016): Carr, H. Y. & Purcell, E. M. Effects of Diffusion on Free Precession in Nuclear Magnetic Resonance Experiments. Phys Rev, 94, 630-638 (1954); Meiboom, S. & Gill, D. Modified Spin-Echo Method for Measuring Nuclear Relaxation Times. Rev Sci Instrum 29, 688-691 (1958)).
Ki determination. Ki values were determined as previously published for Langerin (Wamhoff, E. C. et al. (19)F NMR-Guided Design of Glycomimetic Langerin Ligands. ACS Chem Biol 11, 2407-13 (2016)). Briefly, titration experiments were conducted at a concentration of 0.1 mM of reporter ligand 24 at five competitor concentrations [I]T. Samples were prepared via serial dilution. For the acids GlcNS, GlcNAc-6-OS and GlcNS-6-OS the pH values were monitored and adjusted to 7.8 if necessary.

DC-SIGN = target: T2, DC-SIGN (Homo sapiens, UniProt Q9NNX6); details: literature; cited from earlier work
T2 sequence (Q9NNX6 1-404): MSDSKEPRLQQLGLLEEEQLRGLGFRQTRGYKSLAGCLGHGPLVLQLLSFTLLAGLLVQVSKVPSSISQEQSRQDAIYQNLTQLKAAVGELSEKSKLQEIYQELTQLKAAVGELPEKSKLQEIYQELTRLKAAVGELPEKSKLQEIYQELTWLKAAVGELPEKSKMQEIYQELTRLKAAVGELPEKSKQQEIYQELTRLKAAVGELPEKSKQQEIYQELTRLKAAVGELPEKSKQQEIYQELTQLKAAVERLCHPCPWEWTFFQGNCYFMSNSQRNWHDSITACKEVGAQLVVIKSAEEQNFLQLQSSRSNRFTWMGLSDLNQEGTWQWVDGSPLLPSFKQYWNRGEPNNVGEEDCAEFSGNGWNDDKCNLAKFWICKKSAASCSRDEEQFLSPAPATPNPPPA

DC-SIGN CRD = target: T3, DC-SIGN CRD (Homo sapiens, UniProt Q9NNX6); assay: 19F R2-filtered NMR reporter displacement assay transferred to DC-SIGN; format: binding; details: 19F R2-filtered NMR, DC-SIGN CRD 50 μM, pH 7.0, 25° C.
T3 construct: residues 205 to 404; TEV site (C); StreptagII (C); made in house; host or cells: E. coli BL21* (DE3)
T3 sequence (Q9NNX6 250-404): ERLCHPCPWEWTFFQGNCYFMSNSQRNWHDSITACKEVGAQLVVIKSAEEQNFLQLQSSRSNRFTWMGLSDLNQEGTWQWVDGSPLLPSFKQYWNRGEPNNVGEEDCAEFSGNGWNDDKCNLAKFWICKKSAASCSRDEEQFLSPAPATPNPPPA
Procedure: Langerin and DC-SIGN carbohydrate recognition domain. Expression and purification were conducted as previously published. Briefly, the monomeric ^15N-labeled Langerin and DC-SIGN carbohydrate recognition domains (CRDs) were expressed insolubly in E. coli BL21* (DE3) (Invitrogen). Following enzymatic cell lysis, inclusion bodies were harvested and subsequently solubilized. The sample was centrifuged and the Langerin and DC-SIGN CRDs were refolded overnight via rapid dilution. Next, the sample was dialyzed overnight, centrifuged and purified via StrepTactin affinity chromatography (Iba). After an additional dialysis step overnight, the sample was centrifuged and the buffer was exchanged to 25 mM HEPES with 150 mM NaCl at pH 7.0 using 7 kDa size-exclusion desalting columns (Thermo Scientific) for ^19F R2-filtered and ^15N HSQC NMR experiments. The concentration of Langerin and DC-SIGN CRDs was determined via UV spectroscopy (A280, 0.1%=3.19 and A280, 0.1%=2.98). Purity and monodispersity of Langerin and DC-SIGN CRD samples were analyzed via SDS PAGE and DLS.
General remarks. ^19F R2-filtered NMR experiments were conducted on a PremiumCompact 600 MHz spectrometer (Agilent). […] Apparent relaxation rates R2,obs for the reporter ligand were determined using the CPMG pulse sequence as previously published (Wamhoff, E. C. et al. (19)F Nmr-Guided Design of Glycomimetic Langerin Ligands. ACS Chem Biol, 11, 2407-13 (2016): Carr, H. Y. & Purcell, E. M. Effects of Diffusion on Free Precession in Nuclear Magnetic Resonance Experiments. Phys Rev, 94, 630-638 (1954); Meiboom, S. & Gill, D. Modified Spin-Echo Method for Measuring Nuclear Relaxation Times. Rev Sci Instrum 29, 688-691 (1958)).
Assay development for DC-SIGN. […] Briefly, the KD value and the relaxation rate in bound state R2,b were determined at five concentrations [L]T of reporter ligand 24 in three independent titration experiments. […]
Ki determination. Ki values were determined as previously published for Langerin (Wamhoff, E. C. et al. (19)F NMR-Guided Design of Glycomimetic Langerin Ligands. ACS Chem Biol 11, 2407-13 (2016)). […]

hLangerin+ Raji cells = assay: cell-based binding and internalization assay of functionalized GFP; set-up: species or system human; details: 4° C., in words
Procedure: In FIG. 21 (A) the binding and uptake of functionalized GFP at 4° C. and 37° C. was dose-dependently measured by flow cytometry with Raji and Langerin^+ Raji cells. In FIG. 21 (B) GFP and liposomes were incubated for various time points with Langerin^+ Raji cells. Here, FITC-BSA encapsulated liposomes were utilized to compare the FITC fluorescence with the GFP fluorescence.
Functionalized GFP was then tested in a cell-based binding and internalization assay. Both GlcNTosyl functionalized GFP and unconjugated GFP were incubated with WT or hLangerin^+ Raji cells at 4° C. and at 37° C. for 1 h or 2 h, respectively (see FIG. 21). Targeted GFP specifically bound to Langerin expressing cells and saturated at concentrations above 1 μg/ml (see FIG. 21 (A)). […] GFP fluorescence was slightly elevated compared to the binding assay and also saturated above 1 μg/ml.

Langerin+ cells = assay: in vitro cytotoxicity, Annexin-V / 7-AAD staining; format: cell-based; details: 50% DMSO for 3 min, positive control
Procedure: Liposomes consist mainly of phospholipids and cholesterol. […] As a positive control, cells were treated for 3 min with 50% DMSO. Untreated cells were applied as negative controls. Cells were washed and resuspended in 25 μl buffer (10 mM HEPES, 140 mM NaCl and 2.5 mM CaCl2), pH7.4) containing 1:100 diluted Annexin-V-FITC (Adipogen). Cells were incubated for 10 min in the dark at room temperature. After washing, cells were resuspended in 100 μl buffer containing 1 μl 7-AAD solution (Biolegend) and incubated for 5-10 min in the dark at room temperature. Cells were directly measured without any further washing steps by flow cytometry. […] Annexin-V was detected with a 530/30 filter, 7-AAD with a 695/40 filter and Alexa647 with a 670/14 filter (Attune Nxt, life technologies). […] Langerin targeted liposomes were incubated with cells for extended time periods up to 72 h, and cell toxicity was subsequently analyzed (see FIG. 17).
Early apoptotic effects were detected with Annexin-V staining that binds translocated phosphatidylserine, whereas late apoptotic cells were stained with 7-AAD a cell impermeable fluorescent intercalator that associates to DNA and undergoes a spectral shift. […] After doublet discrimination, single cells were analyzed for Annexin-V-FITC and 7-AAD staining in a bivariate histogram by dividing the plot in four quadrants. […]

T1 sequence (Q9UJ71 148-328 V278A): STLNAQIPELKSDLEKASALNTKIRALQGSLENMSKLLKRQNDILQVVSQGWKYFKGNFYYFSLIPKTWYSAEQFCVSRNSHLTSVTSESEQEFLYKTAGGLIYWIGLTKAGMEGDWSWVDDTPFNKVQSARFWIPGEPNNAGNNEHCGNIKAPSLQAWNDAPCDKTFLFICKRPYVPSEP

Compound | Ki (Langerin ECD) [µM] | other results
CC(=O)N[C@H]1C(O)O[C@H](CO)[C@@H](O)[C@@H]1O (stereo partly shown) [GlcNAc, N-acetyl glucosamine] | 4100 ± 700 | –
CC(=O)N[C@H]1C(O)O[C@H](CO)[C@@H](O[C@@H]2O[C@H](CO)[C@H](O)[C@H](O)[C@H]2O)[C@@H]1O[C@@H]1O[C@@H](C)[C@@H](O)[C@@H](O)[C@@H]1O (stereo partly shown) [Le^X] | – | Kd (DC-SIGN): ~1000 µM
OC[C@H]1OC(O)[C@H](O)[C@@H](O)[C@@H]1O (stereo partly shown) [Glc] | 21000 ± 4000 | –
O=S(=O)(O)N[C@H]1C(O)O[C@H](CO)[C@@H](O)[C@@H]1O (stereo partly shown) [GlcNS, glucosamine-2-sulfate] | 1400 ± 200 | –
O=C[C@@H](O)[C@@H](O)[C@H](O)[C@H](O)CO [Man, mannose] | 4500 ± 500 | Ki (DC-SIGN CRD): 3000 ± 300 µM
CC(=O)N[C@H]1C(O)O[C@H](COS(=O)(=O)O)[C@@H](O)[C@@H]1O (stereo partly shown) [GlcNAc-6-OS, N-acetyl glucosamine-6-sulfate] | 600 ± 100 | –
Unconjugated GFP: Green Fluorescence Protein without ligand, SEQ ID NO: 82 | – | fluorescence signal (hLangerin+ Raji cells): did not show increased fluorescence signals
O=S(=O)(O)N[C@H]1C(O)O[C@H](COS(=O)(=O)O)[C@@H](O)[C@@H]1O (stereo partly shown) [GlcNS-6-OS, glucosamine-2-sulfate-6-sulfate] | 280 ± 60 | –
C[S+](C)[O-] [DMSO] | – | dead cells (Langerin+ cells): 98%
